Source: ChEMBL document CHEMBL4507272 (2021)

Experiments:
[1] = tested on: Phosphatidylinositol 4,5-bisphosphate 3-kinase catalytic subunit alpha isoform (Homo sapiens), P42336 [Q546K]; conditions: Compound concentration 1000.0 nM
[2] = molecular target: Mitogen-activated protein kinase kinase kinase 20 (Homo sapiens) (UniProt Q9NYL2); conditions: Compound concentration 1000.0 nM
[3] = molecular target: Tyrosine-protein kinase JAK1 (Homo sapiens) (UniProt P23458); conditions: Compound concentration 1000.0 nM
[4] = molecular target: G protein-coupled receptor kinase 4 (Homo sapiens) (UniProt P32298); conditions: Compound concentration 1000.0 nM
[5] = molecular target: Serine/threonine-protein kinase D3 (Homo sapiens) (UniProt O94806); conditions: Compound concentration 1000.0 nM
[6] = molecular target: Mast/stem cell growth factor receptor Kit (Homo sapiens) (UniProt P10721); conditions: Compound concentration 1000.0 nM
[7] = molecular target: AP2-associated protein kinase 1 (Homo sapiens) (UniProt Q2M2I8); conditions: Compound concentration 1000.0 nM
[8] = molecular target: Serine/threonine-protein kinase tousled-like 1 (Homo sapiens) (UniProt Q9UKI8); conditions: Compound concentration 1000.0 nM
[9] = molecular target: 5-hydroxytryptamine receptor 2C (Homo sapiens) (UniProt P28335); conditions: Compound concentration 10.0 uM
[10] = molecular target: Serine/threonine-protein kinase mTOR (Homo sapiens) (UniProt P42345); conditions: Compound concentration 1000.0 nM
[11] = molecular target: Tyrosine-protein kinase ABL1 (Homo sapiens) (UniProt P00519); conditions: Compound concentration 1000.0 nM
Chain of Tyrosine-protein kinase ABL1 (Homo sapiens) (P00519 whole entry): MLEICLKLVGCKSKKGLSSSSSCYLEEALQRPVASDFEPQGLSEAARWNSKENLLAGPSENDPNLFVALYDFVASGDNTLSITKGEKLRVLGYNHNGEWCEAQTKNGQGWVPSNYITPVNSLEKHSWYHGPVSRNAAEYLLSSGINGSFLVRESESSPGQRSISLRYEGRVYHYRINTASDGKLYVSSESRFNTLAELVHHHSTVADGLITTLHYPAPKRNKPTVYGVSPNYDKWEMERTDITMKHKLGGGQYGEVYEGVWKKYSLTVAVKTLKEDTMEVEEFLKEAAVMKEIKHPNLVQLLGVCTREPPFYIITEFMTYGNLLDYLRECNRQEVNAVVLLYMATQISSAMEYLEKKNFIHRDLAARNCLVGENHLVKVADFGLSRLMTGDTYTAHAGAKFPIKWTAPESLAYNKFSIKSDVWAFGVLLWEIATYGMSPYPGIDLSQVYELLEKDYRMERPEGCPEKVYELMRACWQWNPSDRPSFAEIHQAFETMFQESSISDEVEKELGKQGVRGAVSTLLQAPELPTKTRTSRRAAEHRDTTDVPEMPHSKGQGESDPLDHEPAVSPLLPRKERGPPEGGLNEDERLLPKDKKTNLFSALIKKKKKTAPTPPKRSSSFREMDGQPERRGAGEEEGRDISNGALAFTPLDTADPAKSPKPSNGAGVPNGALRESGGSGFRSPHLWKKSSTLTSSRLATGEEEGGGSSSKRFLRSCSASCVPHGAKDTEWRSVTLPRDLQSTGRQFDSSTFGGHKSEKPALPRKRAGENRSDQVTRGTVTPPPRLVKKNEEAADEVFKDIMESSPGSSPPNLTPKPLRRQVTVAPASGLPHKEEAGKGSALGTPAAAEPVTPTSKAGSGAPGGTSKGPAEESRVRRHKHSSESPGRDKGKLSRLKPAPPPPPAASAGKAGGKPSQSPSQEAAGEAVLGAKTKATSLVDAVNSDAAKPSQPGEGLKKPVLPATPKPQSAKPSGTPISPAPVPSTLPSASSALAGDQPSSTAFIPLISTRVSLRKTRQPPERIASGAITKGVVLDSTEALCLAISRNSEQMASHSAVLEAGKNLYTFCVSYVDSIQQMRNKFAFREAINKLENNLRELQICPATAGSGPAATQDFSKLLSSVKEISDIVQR

[12] = molecular target: Atypical kinase COQ8A, mitochondrial (Homo sapiens) (UniProt Q8NI60); conditions: Compound concentration 1000.0 nM
Chain of Atypical kinase COQ8A, mitochondrial (Homo sapiens) (Q8NI60 163-647 limits assumed): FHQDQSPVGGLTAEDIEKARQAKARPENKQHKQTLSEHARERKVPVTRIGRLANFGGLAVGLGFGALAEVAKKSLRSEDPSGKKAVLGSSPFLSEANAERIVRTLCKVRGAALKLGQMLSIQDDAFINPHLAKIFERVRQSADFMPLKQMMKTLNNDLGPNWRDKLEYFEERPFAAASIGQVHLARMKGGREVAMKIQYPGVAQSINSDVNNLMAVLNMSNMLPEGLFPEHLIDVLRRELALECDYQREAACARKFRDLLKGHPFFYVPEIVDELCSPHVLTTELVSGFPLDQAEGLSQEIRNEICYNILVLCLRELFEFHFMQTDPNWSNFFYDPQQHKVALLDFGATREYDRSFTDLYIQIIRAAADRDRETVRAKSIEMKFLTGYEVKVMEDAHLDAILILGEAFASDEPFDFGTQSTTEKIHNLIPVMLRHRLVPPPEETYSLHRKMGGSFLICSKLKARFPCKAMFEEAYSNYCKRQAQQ

[13] = molecular target: Cyclin-dependent kinase 13 (Homo sapiens) (UniProt Q14004); conditions: Compound concentration 1000.0 nM
[14] = tested on: Phosphatidylinositol 4,5-bisphosphate 3-kinase catalytic subunit alpha isoform (Homo sapiens), P42336 [I800L]; conditions: Compound concentration 1000.0 nM
[15] = molecular target: Phosphatidylinositol 4-phosphate 5-kinase type-1 alpha (Homo sapiens) (UniProt Q99755); conditions: Compound concentration 1000.0 nM
[16] = molecular target: Serine/threonine-protein kinase MARK1 (Homo sapiens) (UniProt Q9P0L2); conditions: Compound concentration 1000.0 nM
[17] = molecular target: Wee1-like protein kinase (Homo sapiens) (UniProt P30291); conditions: Compound concentration 1000.0 nM
[18] = molecular target: Serine/threonine-protein kinase 17B (Homo sapiens) (UniProt O94768); conditions: Compound concentration 1000.0 nM
Chain of Serine/threonine-protein kinase 17B (Homo sapiens) (O94768 whole entry): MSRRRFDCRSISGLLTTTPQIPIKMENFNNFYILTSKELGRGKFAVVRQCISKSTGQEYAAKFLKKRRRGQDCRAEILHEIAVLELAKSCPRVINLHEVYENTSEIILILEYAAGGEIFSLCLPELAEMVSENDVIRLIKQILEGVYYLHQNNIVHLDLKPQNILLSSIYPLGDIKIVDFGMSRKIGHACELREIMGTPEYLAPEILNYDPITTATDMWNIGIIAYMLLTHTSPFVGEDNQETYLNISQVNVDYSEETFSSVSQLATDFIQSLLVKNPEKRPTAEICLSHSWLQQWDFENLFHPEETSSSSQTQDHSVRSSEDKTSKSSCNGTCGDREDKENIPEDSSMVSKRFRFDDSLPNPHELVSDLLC

[19] = molecular target: 5-hydroxytryptamine receptor 5A (Homo sapiens) (UniProt P47898); conditions: Compound concentration 10.0 uM
[20] = molecular target: Serine/threonine-protein kinase PAK 1 (Homo sapiens) (UniProt Q13153); conditions: Compound concentration 1000.0 nM
[21] = molecular target: Mitogen-activated protein kinase 13 (Homo sapiens) (UniProt O15264); conditions: Compound concentration 1000.0 nM
Chain of Mitogen-activated protein kinase 13 (Homo sapiens) (O15264 whole entry): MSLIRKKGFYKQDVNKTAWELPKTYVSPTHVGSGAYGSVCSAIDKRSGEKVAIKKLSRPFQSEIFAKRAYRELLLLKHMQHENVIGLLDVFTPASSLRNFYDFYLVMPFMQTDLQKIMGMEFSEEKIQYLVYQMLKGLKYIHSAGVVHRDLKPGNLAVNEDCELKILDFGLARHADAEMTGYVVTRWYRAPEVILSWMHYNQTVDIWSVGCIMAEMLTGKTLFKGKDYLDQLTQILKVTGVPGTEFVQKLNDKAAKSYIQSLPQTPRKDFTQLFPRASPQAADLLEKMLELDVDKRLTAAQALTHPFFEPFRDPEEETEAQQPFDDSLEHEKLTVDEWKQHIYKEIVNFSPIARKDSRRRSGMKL

[22] = molecular target: Dual specificity tyrosine-phosphorylation-regulated kinase 1B (Homo sapiens) (UniProt Q9Y463); conditions: Compound concentration 1000.0 nM
[23] = molecular target: Dual specificity mitogen-activated protein kinase kinase 6 (Homo sapiens) (UniProt P52564); conditions: Compound concentration 1000.0 nM
[24] = molecular target: Tyrosine-protein kinase ABL1 (Homo sapiens) (UniProt P00519); conditions: Compound concentration 1000.0 nM; remark: listed apart in the source
[25] = tested on: Epidermal growth factor receptor (Homo sapiens), P00533 [UNDEFINED MUTATION]; conditions: Compound concentration 1000.0 nM
[26] = tested on: Proto-oncogene tyrosine-protein kinase receptor Ret (Homo sapiens), P07949 [V804M]; conditions: Compound concentration 1000.0 nM
[27] = molecular target: Bone morphogenetic protein receptor type-1A (Homo sapiens) (UniProt P36894); conditions: Compound concentration 1000.0 nM
[28] = molecular target: Casein kinase II subunit alpha' (Homo sapiens) (UniProt P19784); conditions: Compound concentration 1000.0 nM
[29] = molecular target: Serine/threonine-protein kinase ULK3 (Homo sapiens) (UniProt Q6PHR2); conditions: Compound concentration 1000.0 nM
[30] = molecular target: Serine/threonine-protein kinase LATS1 (Homo sapiens) (UniProt O95835); conditions: Compound concentration 1000.0 nM
[31] = molecular target: Dual serine/threonine and tyrosine protein kinase (Homo sapiens) (UniProt Q6XUX3); conditions: Compound concentration 1000.0 nM
[32] = molecular target: Serine/threonine-protein kinase NLK (Homo sapiens) (UniProt Q9UBE8); conditions: Compound concentration 1000.0 nM
[33] = molecular target: Calcium/calmodulin-dependent protein kinase type II subunit alpha (Homo sapiens) (UniProt Q9UQM7); conditions: Compound concentration 1000.0 nM
[34] = molecular target: 5'-AMP-activated protein kinase catalytic subunit alpha-2 (Homo sapiens) (UniProt P54646); conditions: Compound concentration 1000.0 nM
[35] = molecular target: Activated CDC42 kinase 1 (Homo sapiens) (UniProt Q07912); conditions: Compound concentration 1000.0 nM
[36] = molecular target: Discoidin domain-containing receptor 2 (Homo sapiens) (UniProt Q16832); conditions: Compound concentration 1000.0 nM
[37] = molecular target: MAP kinase-interacting serine/threonine-protein kinase 2 (Homo sapiens) (UniProt Q9HBH9); conditions: Compound concentration 1000.0 nM
[38] = tested on: Tyrosine-protein kinase ABL1 (Homo sapiens), P00519 [F317L]; conditions: Compound concentration 1000.0 nM
[39] = molecular target: Serine/threonine-protein kinase PAK 3 (Homo sapiens) (UniProt O75914); conditions: Compound concentration 1000.0 nM
[40] = molecular target: Serine/threonine-protein kinase Nek4 (Homo sapiens) (UniProt P51957); conditions: Compound concentration 1000.0 nM
Chain of Serine/threonine-protein kinase Nek4 (Homo sapiens) (P51957 whole entry, looked up, canonical isoform): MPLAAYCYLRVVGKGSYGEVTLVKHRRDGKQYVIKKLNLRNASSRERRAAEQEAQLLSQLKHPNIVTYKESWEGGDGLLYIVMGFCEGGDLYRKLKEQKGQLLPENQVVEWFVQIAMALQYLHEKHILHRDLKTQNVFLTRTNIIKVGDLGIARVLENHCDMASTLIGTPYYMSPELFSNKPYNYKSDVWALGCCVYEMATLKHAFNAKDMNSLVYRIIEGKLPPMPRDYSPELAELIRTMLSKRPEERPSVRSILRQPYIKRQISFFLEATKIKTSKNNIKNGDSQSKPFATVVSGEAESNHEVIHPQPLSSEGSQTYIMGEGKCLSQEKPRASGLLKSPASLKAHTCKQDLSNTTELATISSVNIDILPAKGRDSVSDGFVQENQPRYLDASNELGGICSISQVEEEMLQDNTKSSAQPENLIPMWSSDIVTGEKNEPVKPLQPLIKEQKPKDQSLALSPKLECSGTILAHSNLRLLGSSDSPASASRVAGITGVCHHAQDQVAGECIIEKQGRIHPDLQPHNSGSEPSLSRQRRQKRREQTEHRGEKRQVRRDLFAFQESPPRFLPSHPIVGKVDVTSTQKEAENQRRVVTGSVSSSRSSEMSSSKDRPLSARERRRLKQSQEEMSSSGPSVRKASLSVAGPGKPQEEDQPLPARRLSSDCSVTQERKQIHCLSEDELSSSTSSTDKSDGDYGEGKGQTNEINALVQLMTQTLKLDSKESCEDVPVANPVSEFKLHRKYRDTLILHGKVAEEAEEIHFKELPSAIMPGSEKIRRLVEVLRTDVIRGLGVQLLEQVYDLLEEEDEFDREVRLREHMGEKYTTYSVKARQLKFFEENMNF

[41] = tested on: Phosphatidylinositol 4,5-bisphosphate 3-kinase catalytic subunit alpha isoform (Homo sapiens), P42336 [M1043I]; conditions: Compound concentration 1000.0 nM
Chain of Phosphatidylinositol 4,5-bisphosphate 3-kinase catalytic subunit alpha isoform (Homo sapiens), P42336 [M1043I] (P42336 whole entry M1043I, canonical isoform): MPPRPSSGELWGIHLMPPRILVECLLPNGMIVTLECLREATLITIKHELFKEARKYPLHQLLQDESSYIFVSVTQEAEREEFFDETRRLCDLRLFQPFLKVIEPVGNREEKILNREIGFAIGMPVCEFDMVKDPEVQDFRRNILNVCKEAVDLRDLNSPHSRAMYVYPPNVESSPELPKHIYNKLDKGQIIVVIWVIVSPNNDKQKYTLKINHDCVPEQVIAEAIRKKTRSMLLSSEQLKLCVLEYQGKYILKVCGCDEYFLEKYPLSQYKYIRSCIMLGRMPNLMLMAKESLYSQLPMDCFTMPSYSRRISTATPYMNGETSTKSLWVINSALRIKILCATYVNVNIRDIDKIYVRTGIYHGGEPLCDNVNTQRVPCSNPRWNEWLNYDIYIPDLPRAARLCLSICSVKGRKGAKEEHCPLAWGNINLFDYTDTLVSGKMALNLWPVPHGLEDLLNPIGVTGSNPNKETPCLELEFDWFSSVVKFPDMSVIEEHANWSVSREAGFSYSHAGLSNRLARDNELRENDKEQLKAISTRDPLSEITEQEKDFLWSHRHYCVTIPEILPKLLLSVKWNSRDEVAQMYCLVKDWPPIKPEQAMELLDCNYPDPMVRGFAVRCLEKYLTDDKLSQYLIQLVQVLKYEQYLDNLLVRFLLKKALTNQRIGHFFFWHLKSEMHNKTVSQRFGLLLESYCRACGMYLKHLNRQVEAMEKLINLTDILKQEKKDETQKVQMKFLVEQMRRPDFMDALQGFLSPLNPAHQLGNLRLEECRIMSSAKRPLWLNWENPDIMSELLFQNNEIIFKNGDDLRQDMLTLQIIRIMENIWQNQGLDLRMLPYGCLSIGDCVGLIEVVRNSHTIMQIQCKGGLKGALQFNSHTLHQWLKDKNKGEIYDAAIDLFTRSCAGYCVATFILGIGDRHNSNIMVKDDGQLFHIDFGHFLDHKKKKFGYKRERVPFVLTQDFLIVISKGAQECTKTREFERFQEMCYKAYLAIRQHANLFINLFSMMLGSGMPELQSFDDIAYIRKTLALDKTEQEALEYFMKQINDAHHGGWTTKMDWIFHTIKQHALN

[42] = molecular target: Serine/threonine-protein kinase DCLK3 (Homo sapiens) (UniProt Q9C098); conditions: Compound concentration 1000.0 nM
Chain of Serine/threonine-protein kinase DCLK3 (Homo sapiens) (Q9C098 whole entry): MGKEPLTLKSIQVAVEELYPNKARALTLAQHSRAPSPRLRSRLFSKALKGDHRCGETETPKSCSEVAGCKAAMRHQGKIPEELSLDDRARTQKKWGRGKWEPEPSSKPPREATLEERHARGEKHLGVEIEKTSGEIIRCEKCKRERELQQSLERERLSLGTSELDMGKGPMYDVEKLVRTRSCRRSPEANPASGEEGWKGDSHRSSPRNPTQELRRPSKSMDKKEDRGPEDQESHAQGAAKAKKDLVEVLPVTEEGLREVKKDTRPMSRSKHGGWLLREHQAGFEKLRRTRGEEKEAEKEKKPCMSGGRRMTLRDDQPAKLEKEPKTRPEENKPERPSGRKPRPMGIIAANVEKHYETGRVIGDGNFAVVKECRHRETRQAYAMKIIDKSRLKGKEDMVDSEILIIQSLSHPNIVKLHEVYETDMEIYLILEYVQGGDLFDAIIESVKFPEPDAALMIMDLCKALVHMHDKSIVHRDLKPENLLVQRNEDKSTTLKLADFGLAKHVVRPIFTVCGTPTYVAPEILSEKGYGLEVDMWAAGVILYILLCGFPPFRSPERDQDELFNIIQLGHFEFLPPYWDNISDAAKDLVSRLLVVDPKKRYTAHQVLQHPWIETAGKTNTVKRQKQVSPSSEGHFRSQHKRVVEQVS

[43] = molecular target: Serine/threonine-protein kinase VRK2 (Homo sapiens) (UniProt Q86Y07); conditions: Compound concentration 1000.0 nM
[44] = molecular target: Tyrosine-protein kinase ABL2 (Homo sapiens) (UniProt P42684); conditions: Compound concentration 1000.0 nM

CC(=O)C1=C(C)N(c2cccc(C(F)(F)F)c2)C(=O)N[C@@H]1c1ccc(C#N)nc1 [BAY-678]
inactive: residual activity [1] 100% | residual activity [2] 96.9% | residual activity [3] 100% | residual activity [4] 100% | residual activity [5] 78% | residual activity [6] 96.9% | residual activity [7] 100% | residual activity [8] 85.3% | inhibition [9] -2.88% | residual activity [10] 92.5% | residual activity [11] 96.5% | residual activity [12] 100% | residual activity [13] 100% | residual activity [14] 75.4% | residual activity [15] 100% | residual activity [16] 100% | residual activity [17] 100% | residual activity [18] 100% | inhibition [19] 4.22% | residual activity [20] 91.2% | residual activity [21] 74.6% | residual activity [22] 100% | residual activity [23] 94.6% | residual activity [24] 83.3% | residual activity [25] 100% | residual activity [26] 100% | residual activity [27] 100% | residual activity [28] 75.7% | residual activity [29] 100% | residual activity [30] 67.1% | residual activity [31] 76.9% | residual activity [32] 93% | residual activity [33] 92.5% | residual activity [34] 80.4% | residual activity [35] 78.6% | residual activity [36] 87.6% | residual activity [37] 84.8% | residual activity [38] 100% | residual activity [39] 86.3% | residual activity [40] 93.9% | residual activity [41] 100% | residual activity [42] 53.9% | residual activity [43] 77.6% | residual activity [44] 100%
